# Results taken from ChEMBL document CHEMBL1152019, “A series of conformationally and sterically constrained analogs of N-phenyl-N-aralkylurea ACAT inhibitors” (Bioorg Med Chem Lett, 1995).
# The source made the active and inactive calls. The rule behind the calls is not given here.
# Columns and labels:
# [1] = molecular target: O-acyltransferase (Oryctolagus cuniculus, UniProt G1SFD9); test: In vitro inhibitory activity against ACAT was determined in rabbit intestinal microsome from cholesterol-fed animals; assay type: microsomes, Intestine
# O-acyltransferase, sequence (G1SFD9 1-524): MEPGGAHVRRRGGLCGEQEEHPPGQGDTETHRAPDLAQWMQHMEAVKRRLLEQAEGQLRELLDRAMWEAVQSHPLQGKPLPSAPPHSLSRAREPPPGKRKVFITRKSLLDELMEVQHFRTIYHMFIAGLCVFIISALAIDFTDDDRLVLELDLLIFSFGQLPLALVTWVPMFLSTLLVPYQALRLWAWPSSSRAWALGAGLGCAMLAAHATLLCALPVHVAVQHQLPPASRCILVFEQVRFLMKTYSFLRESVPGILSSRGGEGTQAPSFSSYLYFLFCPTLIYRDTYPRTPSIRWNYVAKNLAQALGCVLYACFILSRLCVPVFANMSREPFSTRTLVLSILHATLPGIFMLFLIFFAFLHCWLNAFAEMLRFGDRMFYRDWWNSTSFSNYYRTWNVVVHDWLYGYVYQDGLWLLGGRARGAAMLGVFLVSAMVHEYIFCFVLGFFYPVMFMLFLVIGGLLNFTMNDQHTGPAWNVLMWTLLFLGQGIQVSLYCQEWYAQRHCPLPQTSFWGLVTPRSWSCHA
# [2] = tested on: Rattus norvegicus; test: In vivo percent change of total cholesterol compared to control at a dose 30 mg/Kg in rats fed with cholic acid (0.5%), cholesterol (1.5%) and peanut oil (5.5%).; assay type: functional
# [3] = tested on: Rattus norvegicus; test: Compound was evaluated in vivo for percent change of total cholesterol compared to control at a dose 30 mg/Kg in rats fed with cholic acid (0.5%), cholesterol (1.5%) and peanut oil (5.5%); No change; assay type: functional, organism-based
IC50 [1] [nM],SMILES,Change [2] [%],Change [3]
63,CC(C)c1cccc(C(C)C)c1NC(=O)NC1CCc2ccccc2C1 (stereo unspecified),-26,–
17,COc1cccc2c1CCC(NC(=O)Nc1c(C(C)C)cccc1C(C)C)C2 (stereo unspecified),-39,–
–,CC(C)c1cccc(C(C)C)c1NC(=O)NOCc1cccc2ccccc12,-32,–
–,CC(C)c1cccc(C(C)C)c1NC(=O)NC1CCCc2ccccc21 (stereo unspecified),–,inactive
–,CC(C)c1cccc(C(C)C)c1NC(=O)NCC(c1ccccc1)c1ccccc1,-73,–
31,CC(C)c1cccc(C(C)C)c1NC(=O)NC1CCc2ccccc2C12CCCC2 (stereo unspecified),-49,–
–,CC(C)c1cccc(C(C)C)c1NC(=O)NOC(c1ccccc1)(c1ccccc1)c1ccccc1,-30,–
–,CC(C)c1cccc(C(C)C)c1NC(=O)NOC(c1ccccc1)c1ccccc1,-67,–
110,CC(C)c1cccc(C(C)C)c1NC(=O)NC1COc2ccccc2C1 (stereo unspecified),-20,–
27,CC(C)c1cccc(C(C)C)c1NC(=O)NCC1CCc2ccccc21 (stereo unspecified),-49,–
810,CC(C)c1cccc(C(C)C)c1NC(=O)NCC1(O)CCc2ccccc21 (stereo unspecified),–,inactive
–,CC(C)c1cccc(C(C)C)c1NC(=O)NCCc1cccc2ccccc12,-32,–
27,CC(C)c1cccc(C(C)C)c1NC(=O)NCC1(c2ccccc2)Cc2ccccc2C1,-67,–
–,CC(C)c1cccc(C(C)C)c1NC(=O)NCC1(c2ccc(N(C)C)cc2)CCCC1 [NEVANIMIBE],-76,–
910,CC(C)c1cccc(C(C)C)c1NC(=O)NC1CCc2ccccc21 (stereo unspecified),–,inactive
34,CC(C)c1cccc(C(C)C)c1NC(=O)NCc1cccc2ccccc12,-53,–
–,CC(C)c1cccc(C(C)C)c1NC(=O)NCCc1ccc2ccccc2c1,-54,–
42,CC(C)c1cccc(C(C)C)c1NC(=O)NCC1c2ccccc2Oc2ccccc21,-25,–
29,CC(C)c1cccc(C(C)C)c1NC(=O)NCC1=CCCc2ccccc21,-33,–
36,CC(C)c1cccc(C(C)C)c1NC(=O)NCC1CCCc2ccccc21 (stereo unspecified),-47,–
–,CC(C)c1cccc(C(C)C)c1NC(=O)NCC1(c2ccccc2)CCCC1,-70,–
–,CC(C)c1cccc(C(C)C)c1NC(=O)NCC1c2ccccc2-c2ccccc21,-41,–
91,CC(C)c1cccc(C(C)C)c1NC(=O)NCC(c1ccccc1)(c1ccccc1)c1ccccc1,-68,–
96,CC(C)c1cccc(C(C)C)c1NC(=O)NC1Cc2ccccc2C1,-8,–
350,CC(C)c1cccc(C(C)C)c1NC(=O)NCC1(O)CCCc2ccccc21 (stereo unspecified),–,inactive
–,CC(C)c1cccc(C(C)C)c1NC(=O)NCCc1ccccc1,-16,–
